The source of these data is US7799781B2, “5,6,7,8-tetrahydropteridine derivatives as HSP90 inhibitors” (AstraZeneca AB, priority 2007, dated 2010).

Structures are written as SMILES.

One assay addresses T1, HSP90α (Homo sapiens, UniProt P07900).
T1 construct: 6H is tagged HSP90α protein (amino acids 2-732) expressed in E. coli; 6His; made in house; host or cells: E. coli
The assay can be described thus: Test (a) In Vitro Binding Assay (fluorescence polarisation, binding to the ATP pocket of HSP90α). The conditions noted are these: FP probe displacement, geometric mean where tested more than once. The procedure: Test (a) In Vitro Binding Assay
Test (a) measures the ability of a compound to bind to the ATP pocket of HSP90α. 6H is tagged HSP90α protein (amino acids 2-732) expressed in E. coli was purified and stored at −80° C. in aliquots. Assay measurements were performed in assay buffer comprising 20 mM HEPES pH 7.4, 50 mM KCl, 20 mM NaHMoO4, 0.01% Nonidet P40, 2 mM DTT and 0.1 mg/ml BSA. Following resuspension in DMSO, the FP probe 3-[[5-(5-ethyl-2,4-dihydroxy-phenyl)-4-(4-methoxyphenyl)2H-pyrazole-3-carbonyl]amino]propyl-Cy3B-amide; 14-(2-{[3-({[3-(5-ethyl-2,4-dihydroxyphenyl)-4-(4-methoxyphenyl)-1H-pyrazol-5-yl]carbonyl}amino)propyl]amino}-2-oxoethyl)-16,16,18,18-tetramethyl-2-sulfo-6,7,7a,8a,9,10,16,18-octahydrobenzo[2″,3″]indolizino [8″,7″:5′,6′]pyrano[3′,2′:3,4]pyrido[1,2-a]indol-5-ium) was diluted to a final concentration of 5 nM in assay buffer. Test compounds were prepared by dilution in 100% DMSO to give the appropriate dose range and dispensed into a 384 well assay plate as a 6X concentrate. Upon addition of recombinant HSP90α to a final assay concentration of 1 μg/ml, FP probe was added and plates incubated at room temperature for 1 to 4 hours. Final DMSO concentration was 1% in a total assay volume of 18 μl. Fluorescence Polarisation measurements were made using a Tecan Ultra plate reader using an excitation wavelength of 530 nm and an emission wavelength of 590 nm. Millipolarisation (mP) values were estimated using Xfluor software.
The data in the above table was generated in an assay substantially as described above in relation to in-vitro Binding Assay (a). Some of the compounds shown in the table were tested more than once in the assay. For those compounds the IC50 value shown is the geometric mean of the measured IC50 values. Therefore, as will be understood, the IC50 values quoted above are not absolute and further measurements of the IC50 values may result in a different mean IC50 value.
As for `COc1c(C)cnc(CN2c3nc(N)ncc3NC(=O)[C@@H]2C)c1C` [Example 1, (7S)-2-amino-8-[(4-methoxy-3,5-dimethylpyridin-2-yl)methyl]-7-methyl-7,8-dihydropteridin-6(5H)-one], the IC50 amounted to 10000 nM. On the same count and under the same terms, with `CCC[C@H]1C(=O)Nc2cnc(N)nc2N1Cc1ncc(C)c(OC)c1C` [Example 2.1, (7S)-2-amino-8-[(4-methoxy-3,5-dimethylpyridin-2-yl)methyl]-7-propyl-7,8-dihydropteridin-6(5H)-one] the figure was 14800 nM. In turn, `COc1c(C)cnc(CN2c3nc(N)ncc3NC(=O)[C@H]2C)c1C` [Example 2.2, (7R)-2-amino-8-[(4-methoxy-3,5-dimethylpyridin-2-yl)methyl]-7-methyl-7,8-dihydropteridin-6(5H)-one] gave an IC50 of 857 nM.

Consider `COc1c(C)cnc(CN2CC(=O)Nc3cnc(N)nc32)c1C` [Example 2.3, 2-amino-8-[(4-methoxy-3,5-dimethylpyridin-2-yl)methyl]-7,8-dihydropteridin-6(5H)-one], for which the half-inhibitory concentration (IC50) came to 1160 nM. The same measure, in the same setting: to `COc1c(C)cnc(CN2c3nc(N)ncc3N(C)C(=O)[C@@H]2C)c1C` [Example 3, (7S)-2-amino-8-[(4-methoxy-3,5-dimethylpyridin-2-yl)methyl]-5,7-dimethyl-7,8-dihydropteridin-6(5H)-one] belongs 18400 nM; to `CCN1C(=O)[C@H](C)N(Cc2ncc(C)c(OC)c2C)c2nc(N)ncc21` [Example 4.1, (7S)-2-amino-5-ethyl-8-[(4-methoxy-3,5-dimethylpyridin-2-yl)methyl]-7-methyl-7,8-dihydropteridin-6(5H)-one], 16700 nM; to `COc1c(C)cnc(CN2c3nc(N)ncc3N(C)C(=O)[C@H]2C)c1C` [Example 4.2, (7R)-2-amino-8-[(4-methoxy-3,5-dimethylpyridin-2-yl)methyl]-5,7-dimethyl-7,8-dihydropteridin-6(5H)-one], 788 nM. On the same count and under the same terms, to `COc1c(C)cnc(CN2CC(=O)N(C)c3cnc(N)nc32)c1C` [Example 4.3, 2-amino-8-[(4-methoxy-3,5-dimethylpyridin-2-yl)methyl]-5-methyl-7,8-dihydropteridin-6(5H)-one] belongs 330 nM; to `COc1c(C)cnc(CN2c3nc(N)ncc3NC[C@@H]2C)c1C` [Example 5, (7S)-8-[(4-methoxy-3,5-dimethylpyridin-2-yl)methyl]-7-methyl-5,6,7,8-tetrahydropteridin-2-amine], 81100 nM; to `COc1c(C)cnc(CN2c3nc(N)ncc3N(C)C[C@@H]2C)c1C` [Example 6.1, (7S)-8-[(4-methoxy-3,5-dimethylpyridin-2-yl)methyl]-5,7-dimethyl-5,6,7,8-tetrahydropteridin-2-amine], 152000 nM.

Turning to `COc1c(C)cnc(CN2c3nc(N)ncc3NC[C@H]2C)c1C` [Example 6.2, (7R)-8-[(4-methoxy-3,5-dimethylpyridin-2-yl)methyl]-7-methyl-5,6,7,8-tetrahydropteridin-2-amine], the IC50 worked out at 2870 nM.

`COc1c(C)cnc(CN2c3nc(N)ncc3N(C)C[C@H]2C)c1C` [Example 6.3, (7R)-8-[(4-methoxy-3,5-dimethylpyridin-2-yl)methyl]-5,7-dimethyl-5,6,7,8-tetrahydropteridin-2-amine]: the IC50 is 15600 nM. The same measure, in the same setting: to `COc1c(C)cnc(CN2CCN(C)c3cnc(N)nc32)c1C` [Example 6.4, 8-[(4-methoxy-3,5-dimethylpyridin-2-yl)methyl]-5-methyl-5,6,7,8-tetrahydropteridin-2-amine] belongs 13000 nM; to `COc1c(C)cnc(CN2c3nc(N)ncc3NC(=O)[C@H]2CC(C)C)c1C` [Example 7.1, (7R)-2-amino-8-[(4-methoxy-3,5-dimethyl-pyridin-2-yl)methyl]-7-(2-methylpropyl)-7,8-dihydropteridin-6(5H)-one], 1940 nM. Same read-out and setting: with `COc1c(C)cnc(CN2c3nc(N)ncc3NC(=O)[C@H]2Cc2ccccc2)c1C` [Example 7.2, (7R)-2-amino-7-benzyl-8-[(4-methoxy-3,5-dimethyl-pyridin-2-yl)methyl]-7,8-dihydropteridin-6(5H)-one] the figure was 526 nM; with `COC(=O)C[C@@H]1C(=O)Nc2cnc(N)nc2N1Cc1ncc(C)c(OC)c1C` [Example 7.3, Methyl {(7R)-2-amino-8-[(4-methoxy-3,5-dimethylpyridin-2-yl)methyl]-6-oxo-5,6,7,8-tetrahydropteridin-7-yl}acetate], 325 nM. On the same count and under the same terms, with `CCC[C@@H]1C(=O)Nc2cnc(N)nc2N1Cc1ncc(C)c(OC)c1C` [Example 7.4, (7R)-2-amino-8-[(4-methoxy-3,5-dimethyl-pyridin-2-yl)methyl]-7-propyl-7,8-dihydropteridin-6(5H)-one] the figure was 1800 nM; with `COc1c(C)cnc(CN2CC(=O)Nc3c(Cl)nc(N)nc32)c1C` [Example 8, 2-Amino-4-chloro-8-[(4-methoxy-3,5-dimethyl-pyridin-2-yl)methyl]-5,7-dihydropteridin-6-one], 100 nM; with `COc1c(C)cnc(CN2CC(=O)Nc3c(SC)nc(N)nc32)c1C` [Example 9, 2-Amino-8-[(4-methoxy-3,5-dimethyl-pyridin-2-yl)methyl]-4-methylsulfanyl-5,7-dihydropteridin-6-one], 1390 nM. Regarding `COCCCN1C(=O)[C@@H](C)N(Cc2ncc(C)c(OC)c2C)c2nc(N)ncc21` [Example 10, (7R)-2-Amino-8-[(4-methoxy-3,5-dimethylpyridin-2-yl)methyl]-5-(3-methoxypropyl)-7-methyl-7,8-dihydropteridin-6(5H)-one], the IC50 was found to be 1220 nM. Same read-out and setting: with `COCCCN1C(=O)CN(Cc2ncc(C)c(OC)c2C)c2nc(N)ncc21` [Example 11.1, 2-amino-8-[(4-methoxy-3,5-dimethylpyridin-2-yl)methyl]-5-(3-methoxypropyl)-7,8-dihydropteridin-6(5H)-one] the figure was 1940 nM; with `COc1c(C)cnc(CN2c3nc(N)ncc3N(CCc3ccccc3)C(=O)[C@H]2C)c1C` [Example 11.2, (7R)-2-amino-8-[(4-methoxy-3,5-dimethylpyridin-2-yl)methyl]-7-methyl-5-(2-phenylethyl)-7,8-dihydropteridin-6(5H)-one], 128 nM; with `COc1c(C)cnc(CN2c3nc(N)ncc3N(CCN3CCNCC3)C(=O)[C@H]2C)c1C` [Example 11.3, (7R)-2-amino-8-[(4-methoxy-3,5-dimethylpyridin-2-yl)methyl]-7-methyl-5-(2-piperazin-1-ylethyl)-7,8-dihydropteridin-6(5H)-one], 7830 nM. Still for that read-out and setting: with `COc1c(C)cnc(CN2c3nc(N)ncc3N(CC(F)F)C(=O)[C@H]2C)c1C` [Example 11.4, (7R)-2-amino-5-(2,2-difluoroethyl)-8-[(4-methoxy-3,5-dimethylpyridin-2-yl)methyl]-7-methyl-7,8-dihydropteridin-6(5H)-one] the figure was 191 nM; with `COc1c(C)cnc(CN2CC(=O)N(CCC(C)C)c3cnc(N)nc32)c1C` [Example 11.5, 2-amino-8-[(4-methoxy-3,5-dimethylpyridin-2-yl)methyl]-5-(3-methylbutyl)-7,8-dihydropteridin-6(5H)-one], 3780 nM; with `COc1c(C)cnc(CN2CC(=O)N(CCC(C)C)c3c(Cl)nc(N)nc32)c1C` [Example 11.6, 2-amino-4-chloro-8-[(4-methoxy-3,5-dimethylpyridin-2-yl)methyl]-5-(3-methylbutyl)-7,8-dihydropteridin-6(5H)-one], 96.8 nM. `COc1c(C)cnc(CN2c3nc(N)ncc3N(CCC(C)C)C(=O)[C@H]2C)c1C` [Example 11.7, (7R)-2-amino-8-[(4-methoxy-3,5-dimethylpyridin-2-yl)methyl]-7-methyl-5-(3-methylbutyl)-7,8-dihydropteridin-6(5H)-one] came in with an IC50 of 375 nM. As to `CCCN1C(=O)[C@@H](C)N(Cc2ncc(C)c(OC)c2C)c2nc(N)ncc21` [Example 11.8, (7R)-2-amino-8-[(4-methoxy-3,5-dimethylpyridin-2-yl)methyl]-7-methyl-5-propyl-7,8-dihydropteridin-6(5H)-one], the IC50 was determined as 552 nM. On the same count and under the same terms, to `COc1c(C)cnc(CN2c3nc(N)ncc3N(Cc3ccccc3)C(=O)[C@H]2C)c1C` [Example 11.9, (7R)-2-amino-5-benzyl-8-[(4-methoxy-3,5-dimethylpyridin-2-yl)methyl]-7-methyl-7,8-dihydropteridin-6(5H)-one] belongs 324 nM. On the same count and under the same terms, with `COc1c(C)cnc(CN2c3nc(N)ncc3N(CC3CC3)C(=O)[C@H]2C)c1C` [Example 11.10, (7R)-2-amino-5-(cyclopropylmethyl)-8-[(4-methoxy-3,5-dimethylpyridin-2-yl)methyl]-7-methyl-7,8-dihydropteridin-6(5H)-one] the figure was 803 nM.

Still in this assay, the particulars now being: verbal assessment.
With `COc1c(C)cnc(CN2c3nc(N)ncc3NC[C@@H]2C)c1C` [Example 5, (7S)-8-[(4-methoxy-3,5-dimethylpyridin-2-yl)methyl]-7-methyl-5,6,7,8-tetrahydropteridin-2-amine], the “activity in the enzyme assay, test (a)” value is “low activity”. Same read-out and setting: to `COc1c(C)cnc(CN2c3nc(N)ncc3N(C)C[C@@H]2C)c1C` [Example 6.1, (7S)-8-[(4-methoxy-3,5-dimethylpyridin-2-yl)methyl]-5,7-dimethyl-5,6,7,8-tetrahydropteridin-2-amine] belongs “low activity”.
